# Publication PMC8848308 (Bioorganic & medicinal chemistry letters, 2020)
# Test system: Huh7 cells stably expressing DENV-3 replicon (strain D3MY05-34640)
# Experiment: Luciferase reporter replicon assay, DENV-3
# Type: cell-based
# Conditions: on moving the 3-F group to the ortho position (compared with the 3-F analogue)
compound,measurement,value
"O=C1CC2(C(=O)Nc3ccc(Cl)cc32)c2cnn(Cc3ccc(Cl)c(F)c3)c2N1 (stereo not shown) [Compound 22, 5-Chloro-1’-(4-chloro-3-fluorobenzyl)-5’,7’-dihydrospiro[indoline-3,4’-pyrazolo[3,4-b]pyridine]-2,6’(1’H)-dione]",loss of potency against DENV-3,20 fold
